Here are results for five compounds from the NIST ThermoML archive (doi:10.1016/j.jct.2016.08.015).

As a reminder, the mass density is the mass of a sample divided by its volume.

SMILES strings stand for the structures. ± gives the expanded uncertainty stated by the source.

A short description of this series: xn = mol fraction of the nth substance listed. The following applies: 101.3 kPa, Liquid, Pycnometric method.

In the case of `CC(=O)CCC(=O)O` [4-oxopentanoic acid] + CCCC[N+](CCCC)(CCCC)CCCC.[Br-], the mass density was determined as 1093.5 ± 1.1 kg/m3 (303.15 K, x1 = 0.75); 1086.2 ± 1.1 kg/m3 (313.15 K, x1 = 0.75); 1078.8 ± 1.1 kg/m3 (323.15 K, x1 = 0.75); 1072.1 ± 1.1 kg/m3 (333.15 K, x1 = 0.75).
The like results for `CC(=O)CCC(=O)O` [4-oxopentanoic acid] + CC[N+](CC)(CC)CC.[Br-] were, in that order, 1169.9 ± 1.1 kg/m3, 1162.2 ± 1.1 kg/m3, 1154.6 ± 1.1 kg/m3 and 1147.4 ± 1.2 kg/m3.
Consider `CC(=O)OCC[N+](C)(C)C.[Cl-]` [acetylcholine chloride] + CC(=O)CCC(=O)O, for which the mass density (303.15 K, x2 = 0.75) amounted to 1136.9 ± 1.1 kg/m3; the mass density (313.15 K, x2 = 0.75) came to 1129.4 ± 1.1 kg/m3; the mass density (323.15 K, x2 = 0.75) was found to be 1121.8 ± 1.1 kg/m3; the mass density (333.15 K, x2 = 0.75) was 1114.4 ± 1.1 kg/m3.
With `CCCC[N+](CCCC)(CCCC)CCCC.[Cl-]` [tetrabutylammonium chloride] + CC(=O)CCC(=O)O, the mass density (303.15 K, x2 = 0.75) is 1027.3 ± 1.2 kg/m3; the mass density (313.15 K, x2 = 0.75) was 1020.3 ± 1.3 kg/m3; the mass density (323.15 K, x2 = 0.75) worked out at 1013.1 ± 1.3 kg/m3; the mass density (333.15 K, x2 = 0.75) is 1006 ± 1.3 kg/m3.
In the case of `CC[N+](CC)(CC)CC.[Cl-]` [tetraethylammonium chloride] + CC(=O)CCC(=O)O, the mass density turned out to be 1090.3 ± 1.3 kg/m3 (303.15 K, x2 = 0.75); 1083.3 ± 1.3 kg/m3 (313.15 K, x2 = 0.75); 1076.1 ± 1.3 kg/m3 (323.15 K, x2 = 0.75); 1069.2 ± 1.3 kg/m3 (333.15 K, x2 = 0.75).
